Tested on: IκBα phosphorylation and nuclear RELA in 3×KD BM-MDSCs
Assay: Immunoblot of NF-κB signaling in 3×KD BM-MDSCs co-cultured with LPS
Assay type: cell-based, mouse
Details: 3×KD (Adrb2, Metrnl, Smpdl3b) BM-MDSCs, LPS 5 min
Source text: FIGS. 15A-15I show YTHDF2 degrades Adrb2, Metrnl, and Smpdl3b transcripts and thereby activates NF-κB signaling in MDSCs. (FIG. 15A) MDSCs were sorted from MC38 tumors in WT, WT+IR, Ythdf2-cKO, Ythdf2-cKO+IR mice and subjected to qPCR analysis of Adrb2, Metrnl and Smpdl3b mRNA level. (FIG. 15B) Graphs showing enrichment of Adrb2, Metrnl and Smpdl3b mRNA in the YTHDF2-immunoprecipitated RNA fraction of bone marrow-derived MDSCs, determined by RIP-qPCR. (FIG. 15C) MDSCs were sorted from bone marrow-derived cells from WT and Ythdf2-cKO mice and were treated with actinomycin D. mRNA was collected at indicated time points after treatment and mRNA levels of Adrb2, Metrnl and Smpdl3b were measured by RT-qPCR. […] Three days after IR, the number of tumor-infiltrating CD45.1^+CD11b^+Ly6C^hi cells was determined. […] The attached cells on the transwell membrane were visualized under a light microscope and quantified. […] Three days after IR, the number of tumor-infiltrating Ccr2^+CD11b^+Ly6C^hi cells was determined. […]
FIGS. 29A-29M show YTHDF2 degrades Adrb2, Metrnl, and Smpdl3b transcripts and thereby activates NF-κB signaling in MDSCs. […] P values were calculated by a nonparametric Wilcoxon-Mann-Whitney test. […] Metrnl and Smpdl3b mRNA in the YTHDF2-immunoprecipitated RNA fraction of bone marrow-derived MDSCs, determined by RIP-qPCR. […]

Compound: Cc1ccc(S(=O)(=O)/C=C/C#N)cc1 [BAY 11-7082]
- increase of IκBα phosphorylation and nuclear localization of RELA in knockdown MDSCs: prevented this increase

Reference: US20260035696A1, “COMBINATION TREATMENT FOR CANCER” (THE UNIVERSITY OF CHICAGO, priority 2022, published 2026)
